Reference: paper PMC11255275, “Structural insights into the triple agonism at GLP-1R, GIPR and GCGR manifested by retatrutide” (Cell Discovery, 2024)

Key:
GCGR mutants [1] = target: T1, GCGR mutants (Homo sapiens, UniProt P47871, I194K); assay: cAMP accumulation, single-point mutated GCGR; type: cell-based; conditions: GCGR I194(2.67b)K, HEK-293T, 40 min, TR-FRET, mean ± S.E.M., n at least 3
T1 construct: expressed in transfected cells; host or cells: HEK-293T
Experimental: (§1) HEK-293T cells were maintained at 37°C in 5% CO2 incubator and seeded onto 6-well cell […]
(§2) culture plates before transfection. After overnight culture, the cells were transiently transfected […]
(§3) with various constructs using Lipofectamine 2000 transfection reagent (Invitrogen). After 24 h, […]
(§4) the transfected cells were seeded onto 384-microtiter plates at a density of 3,000 cells per well […]
(§5) in stimulation buffer (HBSS supplemented with 5 mM HEPES, 0.1% (w/v) casein and 0.5 mM […]
(§6) 3-isobutyl-1-methylxanthine). Different concentrations of retatrutide in stimulation buffer were […]
(§7) added, and the stimulation lasted for 40 min. The reaction was stopped by addition of cAMP […]
(§8) detection buffer containing Eu-cAMP tracer and ULight-anti-cAMP. Plates were then incubated for […]
(§9) 60 min at RT. Time-resolved FRET signals were measured at 620 nm and 665 nm, respectively, by […]
(§10) an EnVision multilabel plate reader (PerkinElmer). Data were analyzed in GraphPad PRISM 9.5 […]
(§11) and all values were normalized to that of the wild-type (WT).
(§12) Supplementary Fig. 5 Effects of receptor mutation on retatrutide-induced cAMP […]
(§13) accumulation. a-c, Signaling profiles of GLP-1R (a), GIPR (b) and GCGR (c) mutants. cAMP […]
(§14) accumulation was measured in wild-type (WT) and single-point mutated GLP-1R, GIPR or […]
(§15) GCGR expressing HEK-293T cells. cAMP levels were normalized to the maximum response […]
(§16) of the WT and dose-response curves were analyzed using a three-parameter logistic equation.
(§17) Data were generated and graphed as means ± S.E.M. of at least three independent experiments performed in quadruplicate.
(§18) (1 picture or pasted object on this page, not shown here)
(§19) Supplementary Ta b l e S 5 Effects of the ligand-binding pocket residue mutation on retatrutide- […]
(§20) induced cAMP signaling at GLP-1R, GIPR or GCGR. […]
(§21) cAMP levels were normalized to the maximum response of the wild-type (WT) and dose-response […]
(§22) curves were analyzed using a three-parameter logistic equation to obtain pEC50 and Emax values. The […]
(§23) experiments were carried out independently at least three times. Data shown are means ± S.E.M. One- […]
(§24) way ANOVA was used to determine statistical difference. N.D., values that could not be determined due […]
(§25) to incomplete curve fits. *P< 0.05, **P< 0.01, ***P< 0.001 and ****P<0.0001.

GCGR mutants [2] = target: T2, GCGR mutants (Homo sapiens, UniProt P47871, K205A); assay: cAMP accumulation, single-point mutated GCGR; type: cell-based; conditions: GCGR K205(ECL1)A; HEK-293T, 40 min, TR-FRET; mean ± S.E.M., n at least 3
T2 construct: expressed in transfected cells; host or cells: HEK-293T
T2 sequence (P47871 26-477 K205A): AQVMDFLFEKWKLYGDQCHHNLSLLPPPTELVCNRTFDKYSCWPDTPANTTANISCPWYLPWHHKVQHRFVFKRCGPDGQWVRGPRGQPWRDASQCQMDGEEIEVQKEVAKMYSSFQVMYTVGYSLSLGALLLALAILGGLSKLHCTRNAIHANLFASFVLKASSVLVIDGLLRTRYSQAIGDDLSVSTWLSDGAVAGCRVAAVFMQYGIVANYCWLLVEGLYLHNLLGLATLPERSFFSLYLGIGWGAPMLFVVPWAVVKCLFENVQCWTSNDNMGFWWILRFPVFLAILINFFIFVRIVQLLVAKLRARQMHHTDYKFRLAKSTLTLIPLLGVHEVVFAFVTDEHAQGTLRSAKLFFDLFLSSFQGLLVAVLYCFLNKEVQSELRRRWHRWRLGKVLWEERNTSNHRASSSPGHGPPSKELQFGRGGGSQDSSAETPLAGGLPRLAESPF
Experimental: as §1, §2, §3, §4, §5, §6, §7, §8, §9, §10, §11, §12, §13, §14, §15, §16, §17, §18, §19, §20, §21, §22, §23, §24, §25

GCGR mutants [3] = target: T3, GCGR mutants (Homo sapiens, UniProt P47871, W215A); assay: cAMP accumulation, single-point mutated GCGR; type: cell-based; conditions: GCGR W215(ECL1)A, HEK-293T, 40 min, TR-FRET, mean ± S.E.M., n at least 3
T3 construct: expressed in transfected cells; host or cells: HEK-293T
T3 sequence (P47871 26-477 W215A): as the sequence (P47871 26-477 K205A) above, with A180K, W190A counted along it
Experimental: as §1, §2, §3, §4, §5, §6, §7, §8, §9, §10, §11, §12, §13, §14, §15, §16, §17, §18, §19, §20, §21, §22, §23, §24, §25

GCGR mutants [4] = assay: cAMP accumulation, single-point mutated GCGR; type: cell-based, human; conditions: relative to WT
Experimental: as §1, §2, §3, §4, §5, §6, §7, §8, §9, §10, §11, §12, §13, §14, §15, §16, §17, §18, §19, §20, §21, §22, §23, §24, §25

GCGR mutants [5] = target: T4, GCGR mutants (Homo sapiens, UniProt P47871, Q131A); assay: cAMP accumulation, single-point mutated GCGR; type: cell-based; conditions: GCGR Q131(1.29b)A; HEK-293T, 40 min, TR-FRET; mean ± S.E.M., n at least 3
T4 construct: expressed in transfected cells; host or cells: HEK-293T
T4 sequence (P47871 26-477 Q131A): as the sequence (P47871 26-477 K205A) above, with Q106A, A180K counted along it
Experimental: as §1, §2, §3, §4, §5, §6, §7, §8, §9, §10, §11, §12, §13, §14, §15, §16, §17, §18, §19, §20, §21, §22, §23, §24, §25

GCGR mutants [6] = target: T5, GCGR mutants (Homo sapiens, UniProt P47871, Y138A); assay: cAMP accumulation, single-point mutated GCGR; type: cell-based; conditions: GCGR Y138(1.36b)A, HEK-293T, 40 min, TR-FRET, mean ± S.E.M., n at least 3
T5 construct: expressed in transfected cells; host or cells: HEK-293T
T5 sequence (P47871 26-477 Y138A): as the sequence (P47871 26-477 K205A) above, with Y113A, A180K counted along it
Experimental: as §1, §2, §3, §4, §5, §6, §7, §8, §9, §10, §11, §12, §13, §14, §15, §16, §17, §18, §19, §20, §21, §22, §23, §24, §25

GCGR mutants [7] = target: T6, GCGR mutants (Homo sapiens, UniProt P47871, Q293A); assay: cAMP accumulation, single-point mutated GCGR; type: cell-based; conditions: GCGR Q293(ECL2)A, HEK-293T, 40 min, TR-FRET, mean ± S.E.M., n at least 3
T6 construct: expressed in transfected cells; host or cells: HEK-293T
T6 sequence (P47871 26-477 Q293A): as the sequence (P47871 26-477 K205A) above, with A180K, Q268A counted along it
Experimental: as §1, §2, §3, §4, §5, §6, §7, §8, §9, §10, §11, §12, §13, §14, §15, §16, §17, §18, §19, §20, §21, §22, §23, §24, §25

GCGR mutants [8] = target: T7, GCGR mutants (Homo sapiens, UniProt P47871, Y202A); assay: cAMP accumulation, single-point mutated GCGR; type: cell-based; conditions: GCGR Y202(2.75b)A, HEK-293T, 40 min, TR-FRET, mean ± S.E.M., n at least 3
T7 construct: expressed in transfected cells; host or cells: HEK-293T
T7 sequence (P47871 26-477 Y202A): as the sequence (P47871 26-477 K205A) above, with Y177A, A180K counted along it
Experimental: as §1, §2, §3, §4, §5, §6, §7, §8, §9, §10, §11, §12, §13, §14, §15, §16, §17, §18, §19, §20, §21, §22, §23, §24, §25

GCGR mutants [9] = target: T8, GCGR mutants (Homo sapiens, UniProt P47871, W87A); assay: cAMP accumulation, single-point mutated GCGR; type: cell-based; conditions: GCGR W87(ECD)A, HEK-293T, 40 min, TR-FRET, mean ± S.E.M., n at least 3
T8 construct: expressed in transfected cells; host or cells: HEK-293T
T8 sequence (P47871 26-477 W87A): as the sequence (P47871 26-477 K205A) above, with W62A, A180K counted along it
Experimental: as §1, §2, §3, §4, §5, §6, §7, §8, §9, §10, §11, §12, §13, §14, §15, §16, §17, §18, §19, §20, §21, §22, §23, §24, §25

GCGR mutants [10] = target: T9, GCGR mutants (Homo sapiens, UniProt P47871, S297A); assay: cAMP accumulation, single-point mutated GCGR; type: cell-based; conditions: GCGR S297(ECL2)A; HEK-293T, 40 min, TR-FRET; mean ± S.E.M., n at least 3
T9 construct: expressed in transfected cells; host or cells: HEK-293T
T9 sequence (P47871 26-477 S297A): as the sequence (P47871 26-477 K205A) above, with A180K, S272A counted along it
Experimental: as §1, §2, §3, §4, §5, §6, §7, §8, §9, §10, §11, §12, §13, §14, §15, §16, §17, §18, §19, §20, §21, §22, §23, §24, §25

GCGR mutants [11] = target: T10, GCGR mutants (Homo sapiens, UniProt P47871, E362A); assay: cAMP accumulation, single-point mutated GCGR; type: cell-based; conditions: GCGR E362(6.53b)A, HEK-293T, 40 min, TR-FRET, mean ± S.E.M., n at least 3
T10 construct: expressed in transfected cells; host or cells: HEK-293T
T10 sequence (P47871 26-477 E362A): as the sequence (P47871 26-477 K205A) above, with A180K, E337A counted along it
Experimental: as §1, §2, §3, §4, §5, §6, §7, §8, §9, §10, §11, §12, §13, §14, §15, §16, §17, §18, §19, §20, §21, §22, §23, §24, §25

GCGR mutants [12] = target: T11, GCGR mutants (Homo sapiens, UniProt P47871, D385A); assay: cAMP accumulation, single-point mutated GCGR; type: cell-based; conditions: GCGR D385(7.42b)A, HEK-293T, 40 min, TR-FRET, mean ± S.E.M., n at least 3
T11 construct: expressed in transfected cells; host or cells: HEK-293T
T11 sequence (P47871 26-477 D385A): as the sequence (P47871 26-477 K205A) above, with A180K, D360A counted along it
Experimental: as §1, §2, §3, §4, §5, §6, §7, §8, §9, §10, §11, §12, §13, §14, §15, §16, §17, §18, §19, §20, §21, §22, §23, §24, §25

GCGR = conditions: less potent than the endogenous hormone; cited from earlier work
Excerpt: (§26) The most successful treatments currently available include glucagon-like peptide-1 (GLP-1) receptor agonists (GLP-1RAs), exemplified by semaglutide (approved in 2017, $19.9 billion sales in 2023)[3] and tirzepatide (approved in 2022, $5.3 billion sales in 2023)[4].

GIPR = conditions: GIPR, more potent than the endogenous hormone by this factor; cited from earlier work
Excerpt: as §26

GLP-1R = conditions: GLP-1R, less potent than the endogenous hormone, factor; cited from earlier work
Excerpt: as §26

T1 sequence (P47871 26-477 I194K): as the sequence (P47871 26-477 K205A) above, with I169K, A180K counted along it

CC[C@H](C)[C@H](NC(=O)[C@H](Cc1ccccc1)NC(=O)[C@H](C)NC(=O)C(C)(C)NC(=O)[C@H](CCC(N)=O)NC(=O)[C@H](C)NC(=O)[C@H](CCCCNC(=O)COCCOCCNC(=O)CC[C@H](NC(=O)CCCCCCCCCCCCCCCCCCC(=O)O)C(=O)O)NC(=O)[C@H](CCCCN)NC(=O)[C@H](CC(=O)O)NC(=O)[C@H](CC(C)C)NC(=O)[C@](C)(CC(C)C)NC(=O)[C@@H](NC(=O)[C@H](CO)NC(=O)[C@H](Cc1ccc(O)cc1)NC(=O)[C@H](CC(=O)O)NC(=O)[C@H](CO)NC(=O)[C@@H](NC(=O)[C@H](Cc1ccccc1)NC(=O)[C@@H](NC(=O)CNC(=O)[C@H](CCC(N)=O)NC(=O)C(C)(C)NC(=O)[C@@H](N)Cc1ccc(O)cc1)[C@@H](C)O)[C@@H](C)O)[C@@H](C)CC)C(=O)N[C@@H](CCC(=O)O)C(=O)N[C@@H](Cc1ccc(O)cc1)C(=O)N[C@@H](CC(C)C)C(=O)N[C@@H](CC(C)C)C(=O)N[C@@H](CCC(=O)O)C(=O)NCC(=O)NCC(=O)N1CCC[C@H]1C(=O)N[C@@H](CO)C(=O)N[C@@H](CO)C(=O)NCC(=O)N[C@@H](C)C(=O)N1CCC[C@H]1C(=O)N1CCC[C@H]1C(=O)N1CCC[C@H]1C(=O)N[C@@H](CO)C(N)=O [retatrutide]
Emax ± S.E.M. (% WT) (GCGR mutants [1]): 101.55 ± 2.54 % WT | EC50 (GCGR mutants [1]; ****P < 0.0001): 263 pM | EC50 (GCGR mutants [2]): 9.33 pM | Emax ± S.E.M. (% WT) (GCGR mutants [2]): 100.00 ± 2.06 % WT | Emax ± S.E.M. (% WT) (GCGR mutants [3]): 101.34 ± 2.03 % WT | EC50 (GCGR mutants [3]; ****P < 0.0001): 66.1 pM | change of retatrutide potency by mutation (GCGR mutants [4]; GCGR S297(ECL2)A): slightly increased | decrease of cAMP signaling potency by mutation (GCGR mutants [4]; GCGR Y138(1.36b)A): 26.9 fold | change of cAMP signaling potency by mutation (GCGR mutants [4]; GCGR Y138(1.36b)L): moderately increased | EC50 (GCGR mutants [5]): 6.76 pM | Emax ± S.E.M. (% WT) (GCGR mutants [5]): 100.15 ± 1.51 % WT | Emax ± S.E.M. (% WT) (GCGR mutants [6]): 101.28 ± 2.08 % WT | EC50 (GCGR mutants [6]; ****P < 0.0001): 195 pM | Emax ± S.E.M. (% WT) (GCGR mutants [7]): 99.73 ± 0.94 % WT | EC50 (GCGR mutants [7]; **P < 0.01): 3.24 pM | Emax ± S.E.M. (% WT) (GCGR mutants [8]): 100.47 ± 2.15 % WT | EC50 (GCGR mutants [8]; ****P < 0.0001): 123 pM | Emax ± S.E.M. (% WT) (GCGR mutants [9]): 101.97 ± 3.51 % WT | EC50 (GCGR mutants [9]; ****P < 0.0001): 631 pM | EC50 (GCGR mutants [10]): 4.9 pM | Emax ± S.E.M. (% WT) (GCGR mutants [10]): 100.48 ± 1.34 % WT | Emax ± S.E.M. (% WT) (GCGR mutants [11]): 100.39 ± 2.54 % WT | EC50 (GCGR mutants [11]; ****P < 0.0001): 66.1 pM | Emax ± S.E.M. (% WT) (GCGR mutants [12]): 100.58 ± 1.33 % WT | EC50 (GCGR mutants [12]; ****P < 0.0001): 47.9 pM | potency factor compared to endogenous hormone (GCGR): 0.3 | potency factor compared to endogenous hormone (GIPR): 8.9 | potency factor compared to endogenous hormone (GLP-1R): 0.4
